Measured values taken from the supplement of paper PMC10307832.

Legend:
Test in all cases: relative viability (nuclei count vs DMSO), 5 days (fraction); higher = more cells survive
Tivantinib + Decitabine = compound: O=C1NC(=O)[C@@H](c2cn3c4c(cccc24)CCC3)[C@@H]1c1c[nH]c2ccccc12 [Tivantinib] + Nc1ncn([C@H]2C[C@H](O)[C@@H](CO)O2)c(=O)n1 [Decitabine] (partner 2 µM)
Procedure, shortened: (§1)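 After 5 days of treatment, lung cancer cells in 1536-well plates were fixed and stained in a single step (final 0.05% Triton X-100, 1% formaldehyde, 1 ug/ml Hoechst) and their nuclei counted on 4× images. Treatment had been applied by pin tool the day after seeding as one drug alone or as a fixed anchor-drug dose with five library-drug doses (not always all listed) in √10 steps. Relative viability is the nuclei count of treated wells divided by that of vehicle wells, and values are medians of duplicate plates.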

Tivantinib + Crizotinib = compound: O=C1NC(=O)[C@@H](c2cn3c4c(cccc24)CCC3)[C@@H]1c1c[nH]c2ccccc12 [Tivantinib] + C[C@@H](Oc1cc(-c2cnn(C3CCNCC3)c2)cnc1N)c1c(Cl)ccc(F)c1Cl [Crizotinib] (partner 1 µM)
Procedure, shortened: as §1

Crenolanib + Palbociclib = compound: CC1(COc2ccc3c(c2)ncn3-c2ccc3cccc(N4CCC(N)CC4)c3n2)COC1 [Crenolanib] + CC(=O)c1c(C)c2cnc(Nc3ccc(N4CCNCC4)cn3)nc2n(C2CCCC2)c1=O [Palbociclib] (partner 0.5 µM)
Procedure, shortened: as §1

Crenolanib + AZD7762 = compound: CC1(COc2ccc3c(c2)ncn3-c2ccc3cccc(N4CCC(N)CC4)c3n2)COC1 [Crenolanib] + NC(=O)Nc1cc(-c2cccc(F)c2)sc1C(=O)N[C@H]1CCCNC1 [AZD7762] (partner 0.2 µM)
Procedure, shortened: as §1

Cell Line | relative viability (Tivantinib + Decitabine; first compound 0.01 µM) | relative viability (Tivantinib + Decitabine; first compound 0.03162 µM) | relative viability (Tivantinib + Decitabine; first compound 0.1 µM) | relative viability (Tivantinib + Decitabine; first compound 0.3162 µM) | relative viability (Tivantinib + Crizotinib; first compound 0.01 µM) | relative viability (Tivantinib + Crizotinib; first compound 0.03162 µM) | relative viability (Tivantinib + Crizotinib; first compound 0.1 µM) | relative viability (Tivantinib + Crizotinib; first compound 0.3162 µM) | relative viability (Crenolanib + Palbociclib; first compound 0.01 µM) | relative viability (Crenolanib + Palbociclib; first compound 0.03162 µM) | relative viability (Crenolanib + Palbociclib; first compound 0.1 µM) | relative viability (Crenolanib + Palbociclib; first compound 0.3162 µM) | relative viability (Crenolanib + Palbociclib; first compound 1 µM) | relative viability (Crenolanib + AZD7762; first compound 0.01 µM) | relative viability (Crenolanib + AZD7762; first compound 0.03162 µM) | relative viability (Crenolanib + AZD7762; first compound 0.1 µM) | relative viability (Crenolanib + AZD7762; first compound 0.3162 µM) | relative viability (Crenolanib + AZD7762; first compound 1 µM)
PC-14 | 0.238 | 0.234 | 0.223 | 0.142 | 0.912 | 0.883 | 0.934 | 0.894 | 0.489 | 0.53 | 0.473 | 0.593 | 0.354 | 0.39 | 0.305 | 0.36 | 0.281 | 0.328
HCC-15 | 0.715 | 0.636 | 0.538 | 0.755 | 0.722 | 0.791 | 0.731 | 0.853 | 0.721 | 0.702 | 0.755 | 0.526 | 0.66 | 1.07 | 1.15 | 0.961 | 0.607 | 1.17
NCI-H2126 | 0.57 | 0.549 | 0.587 | 0.547 | 1.02 | 1.01 | 0.983 | 1.03 | 0.343 | 0.352 | 0.335 | 0.352 | 0.372 | 1.07 | 1.05 | 0.927 | 1.05 | 0.973
NCI-H1915 | 0.279 | 0.248 | 0.263 | 0.254 | 0.868 | 0.888 | 0.852 | 0.91 | 0.513 | 0.57 | 0.507 | 0.522 | 0.389 | 0.745 | 0.74 | 0.688 | 0.793 | 0.585
ChaGo-K-1 | 0.541 | 0.52 | 0.562 | 0.522 | 1.1 | 1.2 | 1.11 | 0.939 | 0.955 | 0.941 | 0.913 | 0.821 | 0.986 | 0.876 | 0.863 | 0.866 | 0.933 | 0.891
LK-2 | 0.233 | 0.196 | 0.262 | 0.29 | 0.2 |  | 0.223 | 0.218 | 0.667 | 0.532 | 0.88 | 0.734 | 1.06 | 0.483 | 0.46 | 0.423 | 0.499 | 0.453
201T | 0.829 | 0.861 | 0.839 | 0.81 | 1.01 | 1.01 | 1.04 | 1.02 | 0.363 | 0.349 | 0.341 | 0.37 | 0.337 | 0.686 | 0.633 | 0.605 | 0.739 | 0.694
HCC-78 | 0.707 | 0.694 | 0.667 | 0.702 | 0.341 | 0.321 | 0.317 | 0.206 | 0.451 | 0.434 | 0.416 | 0.479 | 0.428 | 0.629 | 0.619 | 0.733 | 0.477 | 0.567
NCI-H647 | 0.437 | 0.305 | 0.381 | 0.357 | 1.18 | 1.07 | 1.03 | 0.995 | 0.401 | 0.341 | 0.434 | 0.363 | 0.51 | 0.616 | 0.497 | 0.448 | 0.481 | 0.424
HARA | 0.457 | 0.61 | 0.469 | 0.543 | 1.07 | 1.01 | 1.01 | 0.878 | 0.298 | 0.219 | 0.272 | 0.242 | 0.294 | 0.399 | 0.391 | 0.588 | 0.248 | 0.509
NCI-H650 | 0.355 | 0.287 | 0.315 | 0.327 | 0.728 |  | 0.629 | 0.557 | 0.308 | 0.346 | 0.33 | 0.32 | 0.355 | 1.06 | 0.975 | 1.01 | 0.864 | 0.936
NCI-H2085 | 0.534 | 0.556 | 0.554 | 0.551 | 0.909 | 0.76 | 0.75 | 0.756 |  | 0.46 | 0.475 | 0.512 | 0.485 |  | 0.983 | 0.997 | 0.972 | 1
NCI-H2347 | 0.699 | 0.592 | 0.623 | 0.629 | 0.756 | 0.564 | 0.74 | 0.674 | 0.458 | 0.453 | 0.395 | 0.435 | 0.481 | 0.815 | 0.772 | 0.678 | 0.818 | 0.85
NCI-H1944 | 0.43 | 0.451 | 0.44 | 0.401 | 1.01 | 1.01 | 1.03 | 0.64 | 0.356 | 0.315 | 0.335 | 0.324 | 0.3 | 0.551 | 0.587 | 0.534 | 0.605 | 0.497
EKVX | 0.312 | 0.351 | 0.381 | 0.153 | 0.944 | 0.965 | 0.712 | 0.242 | 0.447 | 0.338 | 0.39 | 0.393 | 0.322 | 0.733 | 0.779 | 0.731 | 0.841 | 0.761
NCI-H358 | 0.212 | 0.227 | 0.189 | 0.145 | 0.651 | 0.574 | 0.709 | 0.301 | 0.164 | 0.131 | 0.136 | 0.135 | 0.125 | 0.577 | 0.67 | 0.465 | 0.537 | 0.584
